From ChEMBL document CHEMBL1201862, “PubChem BioAssay data set” (2004)
Where “and” joins values, the source holds several entries; their conditions need not be identical. Identical values can stand only once.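 In this assay, cells in 96-well plates receive the compound at five concentrations for 48 hours. Endpoints are linearly interpolated between the surrounding concentrations. Abbreviation: GI50, concentration required for 50% inhibition of growth.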 Calls of active or inactive are those of the source. Rule as the data show it: active = GI50 up to about 1.1 µM and inactive = higher.

Columns and labels:
Test in all cases: growth of human tumour cells (NCI), 48 h
TK-10 = system: TK-10
SF-295 = system: SF-295
MDA-MB-231 = system: MDA-MB-231
NCI-H226 = system: NCI-H226
U-251 = system: U-251
HOP-92 = system: HOP-92
SF-268 = system: SF-268
NCI-H23 = system: NCI-H23
MCF7 = system: MCF7
CAKI-1 = system: CAKI-1
HCT-116 = system: HCT-116
MOLT-4 = system: MOLT-4
OVCAR-5 = system: OVCAR-5
IGROV-1 = system: IGROV-1
SK-OV-3 = system: SK-OV-3
SR = system: SR
SK-MEL-5 = system: SK-MEL-5
SF-539 = system: SF-539
RXF 393 = system: RXF 393
Hs-578T = system: Hs-578T

Measured: GI50

COC1/C=C/C(C)C(C(C)C(OC)C(C)CCC(=O)C(C)C(CC(=O)O)OC)OC(=O)/C=C/C=C(\C)CC(OC)C(OC)C2=CC(=O)O[C@@H](C(C)C(OC)CC(OC)/C=C/C(C)C(O)C1)[C@H]2O (some centres not stated)
active: TK-10 0.0703 µM | SF-295 0.0968 µM | MDA-MB-231 0.083 µM | NCI-H226 0.0336 µM | U-251 0.0416 µM | HOP-92 0.0339 µM | SF-268 0.046 µM | NCI-H23 0.164 µM | MCF7 0.0715 µM | CAKI-1 0.033 µM | HCT-116 0.00714 µM | MOLT-4 0.106 µM | OVCAR-5 0.265 µM | IGROV-1 0.0129 µM | SK-OV-3 0.0879 µM | SR 0.0622 µM | SK-MEL-5 0.0536 µM

COc1ccc([C@@]23Oc4cc(OC)cc(OC)c4[C@]2(O)[C@H](O)[C@H](C(N)=O)[C@H]3c2ccccc2)cc1 [DIDESMETHYLROCAGLAMIDE]
active: TK-10 0.0105 µM | SF-539 < 0.01 µM | SF-295 < 0.01 µM | MDA-MB-231 < 0.0108 µM | NCI-H226 < 0.01 µM | U-251 < 0.01 µM | HOP-92 < 0.01 µM | SF-268 < 0.01 µM | NCI-H23 < 0.01 µM | MCF7 < 0.01 µM | CAKI-1 < 0.0164 µM | RXF 393 < 0.01 µM | Hs-578T < 0.01 µM | HCT-116 < 0.01 µM | MOLT-4 < 0.01 µM | OVCAR-5 0.0102 µM | IGROV-1 < 0.01 µM | SK-OV-3 < 0.01 µM | SK-MEL-5 < 0.01 µM

O=C(O)c1ccc(C(O)(c2ccccc2)c2ccccc2)cc1
inactive: TK-10 > 100 µM | SF-295 > 100 µM | MDA-MB-231 > 100 µM | U-251 > 100 µM | SF-268 > 100 µM | NCI-H23 > 100 µM | MCF7 > 100 µM | CAKI-1 > 100 µM | Hs-578T > 100 µM | HCT-116 > 100 µM | MOLT-4 > 100 µM | OVCAR-5 > 100 µM | IGROV-1 > 100 µM | SK-OV-3 > 100 µM | SR > 100 µM | SK-MEL-5 > 100 µM

CCCCCCCCCCCCNC(C)=O
inactive: TK-10 13.7 µM | SF-539 16.3 µM | SF-295 17.7 µM | MDA-MB-231 13.8 µM | NCI-H226 18.7 µM | U-251 15.4 µM | HOP-92 2.26 µM | SF-268 14.3 µM | NCI-H23 15.7 µM | MCF7 17.1 µM | CAKI-1 17 µM | RXF 393 18.9 µM | Hs-578T 14.4 µM | HCT-116 17.9 µM | SK-OV-3 15.7 µM | SK-MEL-5 16.8 µM

Nc1ccc2nc3ccc(=O)cc-3n(-c3ccccc3)c2c1
inactive: SF-539 31.6 µM | SF-295 > 100 µM | MDA-MB-231 38.7 µM | NCI-H226 67.9 µM | U-251 86.3 µM | HOP-92 > 100 µM | SF-268 58.2 µM | NCI-H23 > 100 µM | MCF7 93.3 µM | RXF 393 59.8 µM | Hs-578T 75.9 µM | HCT-116 34.4 µM | MOLT-4 > 100 µM | OVCAR-5 > 100 µM | IGROV-1 45.5 µM | SK-OV-3 > 100 µM | SK-MEL-5 > 100 µM

CSc1nnc(SC)nn1
active: MOLT-4 0.438 µM
inactive: TK-10 12.6 µM | SF-539 18.2 µM | SF-295 18.1 µM | MDA-MB-231 18.2 µM | NCI-H226 32.4 µM | U-251 20.6 µM | HOP-92 3.84 µM | SF-268 15.9 µM | NCI-H23 20.8 µM | MCF7 17 µM | CAKI-1 16.9 µM | RXF 393 16.7 µM | Hs-578T 27.2 µM | HCT-116 11 µM | OVCAR-5 18.1 µM | IGROV-1 16.3 µM | SK-OV-3 21.4 µM | SK-MEL-5 15.8 µM

C=C[C@@]1(C)CC2CC[C@]3(C)C(C)=CC(=O)CC3[C@]2(C)CC1O (some centres not stated)
inactive: TK-10 > 100 µM | SF-539 > 100 µM | SF-295 > 100 µM | NCI-H226 > 100 µM | U-251 > 100 µM | HOP-92 > 100 µM | SF-268 > 100 µM | NCI-H23 > 100 µM | MCF7 > 100 µM | CAKI-1 > 100 µM | RXF 393 > 100 µM | Hs-578T > 100 µM | HCT-116 91.4 µM | MOLT-4 83.2 µM | OVCAR-5 > 100 µM | IGROV-1 > 100 µM | SK-OV-3 > 100 µM | SR > 100 µM | SK-MEL-5 > 100 µM

O=c1c(Nc2ccccc2)cn(CCOc2ccccc2)c(=O)n1CCOc1ccccc1
inactive: SF-295 52.5 µM | U-251 > 100 µM | HOP-92 35.6 µM | SF-268 16.5 µM | NCI-H23 33.4 µM | MCF7 > 100 µM | CAKI-1 81.7 µM | RXF 393 48.4 µM | Hs-578T 17.6 µM | HCT-116 > 100 µM | MOLT-4 > 100 µM | OVCAR-5 57.5 µM | IGROV-1 36.3 µM | SR > 100 µM | SK-MEL-5 47.9 µM

Cc1sc(C)c2c1C(=O)CC2N (configuration not stated)
inactive: TK-10 19.1 µM | SF-539 3.26 µM | SF-295 > 100 µM | MDA-MB-231 22.7 µM | NCI-H226 > 37.8 µM | U-251 76.4 µM | HOP-92 18.5 µM | SF-268 > 40.9 µM | NCI-H23 32.1 µM | CAKI-1 15.1 µM | RXF 393 16.3 µM | Hs-578T 44.8 µM | HCT-116 14.5 µM | MOLT-4 1.58 µM | OVCAR-5 > 100 µM | IGROV-1 34.7 µM | SK-OV-3 > 76.6 µM | SR 4.27 µM | SK-MEL-5 46.3 µM

Cc1ccc(S(=O)(=O)ON=C2CC(c3ccccc3)N(C)C(c3ccccc3)C2)cc1 (configuration not stated)
inactive: TK-10 21.8 µM and 20.6 µM | SF-539 17.1 µM | SF-295 25.9 µM and 25.1 µM | NCI-H226 28.7 µM and 23.6 µM | U-251 23.3 µM and 21.1 µM | HOP-92 15.9 µM and 15.3 µM | SF-268 22.8 µM and 23.4 µM | NCI-H23 25.2 µM and 19.9 µM | CAKI-1 24.6 µM and 15.6 µM | RXF 393 20.2 µM and 18.8 µM | HCT-116 15.9 µM and 14.2 µM | MOLT-4 17.9 µM and 20.6 µM | OVCAR-5 20.8 µM | IGROV-1 23.5 µM and 21.4 µM | SK-OV-3 22.5 µM and 21.8 µM | SR 16.9 µM and 21.5 µM | SK-MEL-5 17.4 µM and 16.3 µM

N#CC[N+]1(Cc2ccccn2)CCCC1.O=S(=O)([O-])c1ccccc1
inactive: TK-10 > 100 µM | SF-539 > 100 µM | SF-295 > 100 µM | MDA-MB-231 > 100 µM | NCI-H226 > 100 µM | U-251 > 100 µM | HOP-92 > 100 µM | SF-268 > 100 µM | NCI-H23 > 100 µM | MCF7 > 100 µM | CAKI-1 > 100 µM | RXF 393 > 100 µM | Hs-578T > 100 µM | HCT-116 > 100 µM | MOLT-4 7.01 µM | OVCAR-5 > 100 µM | IGROV-1 > 100 µM | SK-OV-3 > 100 µM | SK-MEL-5 > 100 µM

COC1(OC)C2(Cl)C3=CCCC=C3C1(Cl)C(Cl)=C2Cl
inactive: TK-10 > 100 µM | SF-539 29 µM | SF-295 25.1 µM | NCI-H226 45.7 µM | U-251 30.3 µM | HOP-92 21.5 µM | SF-268 27.4 µM | NCI-H23 21.9 µM | CAKI-1 18.9 µM | RXF 393 13.9 µM | HCT-116 17.1 µM | MOLT-4 18.4 µM | OVCAR-5 23.7 µM | IGROV-1 36.5 µM | SK-OV-3 26 µM | SR 18.1 µM | SK-MEL-5 14.3 µM

COc1ccc(-c2c(C3=NCCCN3)nnn2-c2ccc([N+](=O)[O-])cc2)cc1
inactive: TK-10 > 100 µM | SF-539 > 100 µM | SF-295 > 100 µM | NCI-H226 > 100 µM | U-251 > 100 µM | HOP-92 > 100 µM | SF-268 > 100 µM | NCI-H23 > 100 µM | CAKI-1 > 100 µM | RXF 393 > 100 µM | HCT-116 > 100 µM | MOLT-4 > 100 µM | OVCAR-5 > 100 µM | IGROV-1 > 100 µM | SK-OV-3 34.8 µM | SR > 100 µM | SK-MEL-5 > 100 µM

Cc1ccc(S(=O)(=O)Nn2c(C)cc3ccc(S(=O)(=O)Nc4ccccc4[N+](=O)[O-])cc3c2=O)cc1
inactive: TK-10 > 100 µM | SF-539 > 100 µM | SF-295 17.6 µM | MDA-MB-231 > 100 µM | NCI-H226 40.1 µM | U-251 > 100 µM | HOP-92 94.6 µM | SF-268 > 100 µM | NCI-H23 > 100 µM | MCF7 99.3 µM | CAKI-1 > 100 µM | Hs-578T 45.3 µM | HCT-116 47.4 µM | MOLT-4 > 100 µM | OVCAR-5 > 100 µM | IGROV-1 43 µM | SK-OV-3 > 100 µM | SR > 100 µM

CCCCCCC(=O)CC(=O)C(=O)Nc1ccccc1C
inactive: TK-10 > 100 µM | SF-539 > 100 µM | SF-295 > 100 µM | NCI-H226 > 100 µM | U-251 > 89.1 µM | HOP-92 > 100 µM | SF-268 > 65.6 µM | NCI-H23 > 100 µM | CAKI-1 > 100 µM | RXF 393 > 100 µM | HCT-116 > 100 µM | MOLT-4 > 100 µM | OVCAR-5 > 100 µM | IGROV-1 > 100 µM | SK-OV-3 > 100 µM | SR > 100 µM | SK-MEL-5 > 100 µM
